Test [1] relates to MYB mRNA. In words: RT-qPCR splicing assay, MYB canonical junction (CJ) and alternative junction (AJ) mRNA. The test is classed as cell-based, human. As to conditions: Homo sapiens; for AC50: increase in MYB alternative junction (AJ) mRNA, read-out: MYB AJ AC50. In a few lines:
(§1)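 A673 or K562 cells were treated for 24 h at 37 °C with an 11-point 3-fold compound dilution series (top final concentration 10 uM, DMSO ≤0.25%). After lysis, one-step TaqMan RT-qPCR quantified junction transcripts, normalized to PPIA for A673 or to GAPDH/GUSB for K562.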
(In general: In qPCR the cycle at which signal appears reflects the starting amount.)

The subject of test [2] is Target C. In words: RT-qPCR splicing assay panel, Target C canonical junction (CJ) mRNA. The test is classed as cell-based, human. Conditions: Homo sapiens. A digest of the protocol:
(§2)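 A673 cells (DMEM/10% FBS) or K562 cells (IMDM/10% FBS) were treated 24 h at 37° C. with 11-point 3-fold dilutions (top 10 uM, ≤0.25% DMSO). Canonical-junction mRNA was quantified in lysates by RT-qPCR, normalized to GAPDH, GUSB or PPIA.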

Test [3] deals with SMN2 mRNA. In words: RT-qPCR splicing assay, SMN2 canonical junction (CJ) mRNA. Conditions: Homo sapiens. The test is classed as cell-based, human. In a few lines: as §2
Test [4] has as its system HTT mRNA. In words: RT-qPCR splicing assay, HTT canonical junction (CJ) and alternative junction (AJ) mRNA. The test is classed as cell-based, human. Conditions: Homo sapiens; for AC50: increase in HTT alternative junction (AJ) mRNA, read-out: HTT AJ AC50. In a few lines:
as §1

In test [5] the test system is Target C. In words: HiBiT protein abundance assay, Target C (Promega Nano-Glo HiBiT Lytic Detection System, knock-in K562 cell line). The test is classed as cell-based, human. As to conditions: Homo sapiens, K562, 24 h, HiBiT K562 cell line, 24 hours, top dose 10 μM; read-out: Effect on protein abundance, Target C (IC50 category). The procedure: (§3) • Promega Nano-Glo HiBiT Lytic Detection System (cat #N3030) • Corning 384-well TC-treated microplates (cat #3570) • Synthego Engineered Cells Knock-In Clones
(§4) Cells were maintained in IMDM with 10% FBS. Before the assay, cells were diluted with […] growth media (IMDM+[…] media) and were seeded in a 384-well plate at a density of 10,000 cells/well (for each cell line listed in Table 5). Each compound was prepared as a 10-point 3-fold serial dilution in DMSO with the top dose at a final concentration of 10 μM in the well. Unmodified K562 cells were added at the previously specified density with DMSO to serve as an assay baseline and positive control (PC) and DMSO only with the respective modified cell lines was added to the negative control (NC) columns. Final DMSO concentration was kept at or below 0.25%. Treated cell plates were placed in an incubator at 37° C. with […] for 24 hours. After 24 hours, 25 μL of Complete HiBit Lytic reagent was added to each well at room temperature (e.g. one plate requiring 10 mL Lytic Buffer, 100 μL LgBiT Protein, 200 μL Lytic Substrate), shaken for 5 minutes at 600 RPM, then left to sit for 10 minutes for signal to stabilize before reading on a Spark Cyto plate reader (Tecan) with a 500 ms measurement time.
(§5) To determine compound effects on protein abundance of each target in Table 5, the percent response for each respective cell line was calculated at each compound concentration as follows:
(§6) For the normalized response at each concentration, a four-parameter logistical regression was fit to the data and the response was interpolated at the […] to determine a concentration for protein abundance at […] the untreated control.
For orientation: With HiBiT, luminescence reflects the tagged protein that the partner subunit can reach.

The subject of test [6] is K562 (human chronic myelogenous leukemia) cells. In words: Cell Titer Glo 2.0 cell viability assay. In kind it is cell-based. As to conditions: Homo sapiens, K562, 72 h, K562 cells, 72 hours, Cell Titer Glo 2.0; read-out: K562 GI50. In general terms: In ATP-based viability assays light output follows the ATP content of the culture.
For test [7], the system named is MYB. In words: HiBiT protein abundance assay, MYB HiBiT K562 cell line. In kind it is cell-based, human. As to conditions: HiBiT K562 cell line, 24 hours, top dose 10 μM; read-out: Effect on protein abundance, MYB (IC50 category). The procedure: (§7) Compounds described herein were used to screen for effects on quantitative protein abundance using a HiBit assay system (Promega). Quantitative protein abundance was determined by measuring the protein levels of HiBit-tagged protein targets expressed in cell culture via luminescence using the Nano-Glo HiBiT Lytic Detection System, which uses a split complementation assay format to reconstitute NanoBiT enzyme to generate a luminescent signal. A protein abundance assay was developed such that endogenous protein targets could be modified with the HiBiT peptide tag and their abundance could be assessed after compound treatment. Briefly, K562 cell lines containing a HiBiT-modification were treated with various compounds described herein (e.g., compounds of Formulas (I), (II), (III), (IV), (V), (VI), (VII), (VIII), or (IX)). After treatment for 24 hours, the protein abundance of a specific target was determined by measuring luminescence.
as §3, §4, §5, §6

Test [8] has as its system HTT. In words: HiBiT protein abundance assay, HTT HiBiT K562 cell line. In kind it is cell-based, human. Conditions: HiBiT K562 cell line, 24 hours, top dose 10 μM; read-out: Effect on protein abundance, HTT (IC50 category). On the procedure:
as §7, §3, §4, §5, §6

Setting [9] is: decrease in MYB canonical junction (CJ) mRNA, RT-qPCR, read-out: MYB CJ IC50.
Setting [10] is: decrease in HTT canonical junction (CJ) mRNA, RT-qPCR, read-out: HTT CJ IC50.
The mark [11] stands for this setting: canonical junction qPCR panel, Table 5, read-out: MYB (decrease in CJ mRNA levels, IC50).
The mark [12] stands for this setting: canonical junction qPCR panel, Table 5, read-out: Target C (decrease in CJ mRNA levels, IC50).
The mark [13] stands for this setting: canonical junction qPCR panel, Table 5, read-out: SMN2 (decrease in CJ mRNA levels, IC50).
The mark [14] stands for this setting: canonical junction qPCR panel, Table 5, read-out: HTT (decrease in CJ mRNA levels, IC50).

Read-outs that look alike come from different tables or passages of the source.

What is called IC50 is the concentration at which inhibition is half-maximal. What is called AC50 is the concentration giving half of the maximal activity seen. In general, GI50 refers to the concentration at which growth is held to half of that of the control.

In the case of `Cc1cn2cc(-c3cc(F)c4c(=O)n(C5CCNC5)cnc4c3)cc(F)c2n1` (stereo not shown) [Compound 344], the half-maximal inhibitory concentration (IC50) in test [1] (Table 5 panel, canonical junction qPCR, compound concentration having 50% response in CJ decrease, read-out: MYB IC50 (decrease in CJ mRNA levels)) is 100 to 1000 nM; in test [1] (setting [9]) it was 100 to 1000 nM; in test [2] (Table 5 panel, canonical junction qPCR, compound concentration having 50% response in CJ decrease, read-out: Target C IC50 (decrease in CJ mRNA levels)) it was 1000 to 10000 nM; in test [3] (Table 5 panel, canonical junction qPCR, compound concentration having 50% response in CJ decrease, read-out: SMN2 IC50 (decrease in CJ mRNA levels)), less than 100 nM; in test [4] (setting [10]), 1000 to 10000 nM; in test [4] (Table 5 panel, canonical junction qPCR, compound concentration having 50% response in CJ decrease, read-out: HTT IC50 (decrease in CJ mRNA levels)), 1000 to 10000 nM. Besides, the IC50 in test [5] is more than 10000 nM. For the same compound, the results for the AC50 in test [1] (RT-qPCR) and in test [4] (RT-qPCR) were 100 to 1000 nM and 1000 to 10000 nM, respectively. Also, the GI50 in test [6] fell in the range of 1000 to 10000 nM.
For `Cc1cn2nc(-c3cc(O)c4c(=O)n(C5CCNC6(CC6)C5)ccc4c3)cc(C)c2n1` (stereo not shown) [Compound 466, 6-(2,8-dimethylimidazo[1,2-b]pyridazin-6-yl)-8-hydroxy-2-(4-azaspiro[2.5]octan-7-yl)isoquinolin-1(2H)-one], the 50% inhibitory concentration (IC50) in test [7], in test [8] and in test [5] was less than 100 nM in each case. For the same compound, in test [6], the GI50 is less than 100 nM.
In the case of `Cc1cn2nc(-c3cc(C)c4c(=O)n([C@H]5CCNC6(CC6)C5)ncc4c3)cc(C)c2n1` [Compound 467], the IC50 in test [7], in test [8] and in test [5] was 100 to 1000 nM in each case. Moreover, the GI50 in test [6] lay in the range of 1000 to 10000 nM.
For the compound `Cc1cn2nc(-c3cc(C)c4c(=O)n([C@@H]5CCNC6(CC6)C5)ncc4c3)cc(C)c2n1` [Compound 468], the concentration for half-maximal inhibition (IC50) in test [7], in test [8] and in test [5] was less than 100 nM throughout. Moreover, the GI50 in test [6] is 100 to 1000 nM.
For `CNC12CCC(n3ccc4nc(-c5cc6cn(C)nc6cc5O)ccc4c3=O)(CC1)C2` [Compound 1525], the concentration for half-maximal inhibition (IC50) in test [1] (setting [11]) was less than 100 nM; in test [1] (setting [9]) it was less than 100 nM; in test [2] (setting [12]), more than 10000 nM; in test [3] (setting [13]) it was less than 100 nM; in test [4] (setting [10]) it was 1000 to 10000 nM; in test [4] (setting [14]), 1000 to 10000 nM. In addition, the half-maximal activity concentration (AC50) in test [1] (RT-qPCR) is less than 100 nM; in test [4] (RT-qPCR), 1000 to 10000 nM. For the same compound, the concentration for 50% growth inhibition (GI50) in test [6] was less than 100 nM.
With `Cc1c(O)c(-c2ccc3c(=O)n(C45CCC(NC(C)C)(CC4)C5)ccc3n2)cc2cn(C)nc12` [Compound 1526], the IC50 in test [1] (setting [11]) was less than 100 nM; in test [1] (setting [9]), less than 100 nM; in test [2] (setting [12]) it was more than 10000 nM; in test [3] (setting [13]), less than 100 nM; in test [4] (setting [10]), more than 10000 nM; in test [4] (setting [14]) it was 1000 to 10000 nM. For the same compound, the AC50 in test [1] (RT-qPCR) was less than 100 nM; in test [4] (RT-qPCR) it was 1000 to 10000 nM. The 50% growth inhibitory concentration (GI50) in test [6] lay in the range of 100 to 1000 nM.

The values above are taken from patent US20250332173A1, “COMPOUNDS AND METHODS FOR MODULATING NUCLEIC ACID SPLICING” (REMIX THERAPEUTICS INC., priority 2021, published 2025).
